Measurements taken from patent US9682928B2 (NeuroPro Therapeutics, Inc., priority 2009, dated 2017).
Like-named read-outs stand apart in the source and are kept apart here.

Legend:
Na+K+Cl− co-transporter = target: T1, Na+K+Cl− co-transporter (Rattus norvegicus, UniProt E9PTX9); test: Na+K+Cl− cotransporter assay, 86Rb uptake in A7r5 cells; format: cell-based; conditions: 10 minutes at 37° C.; for inhibition at 10 µM: read-out: % Inhibition of Control Values; for remaining activity at 10 µM: read-out: % of Control Value
T1 construct: endogenous in cells; host or cells: A7r5 cells
T1 sequence (E9PTX9 1-1203): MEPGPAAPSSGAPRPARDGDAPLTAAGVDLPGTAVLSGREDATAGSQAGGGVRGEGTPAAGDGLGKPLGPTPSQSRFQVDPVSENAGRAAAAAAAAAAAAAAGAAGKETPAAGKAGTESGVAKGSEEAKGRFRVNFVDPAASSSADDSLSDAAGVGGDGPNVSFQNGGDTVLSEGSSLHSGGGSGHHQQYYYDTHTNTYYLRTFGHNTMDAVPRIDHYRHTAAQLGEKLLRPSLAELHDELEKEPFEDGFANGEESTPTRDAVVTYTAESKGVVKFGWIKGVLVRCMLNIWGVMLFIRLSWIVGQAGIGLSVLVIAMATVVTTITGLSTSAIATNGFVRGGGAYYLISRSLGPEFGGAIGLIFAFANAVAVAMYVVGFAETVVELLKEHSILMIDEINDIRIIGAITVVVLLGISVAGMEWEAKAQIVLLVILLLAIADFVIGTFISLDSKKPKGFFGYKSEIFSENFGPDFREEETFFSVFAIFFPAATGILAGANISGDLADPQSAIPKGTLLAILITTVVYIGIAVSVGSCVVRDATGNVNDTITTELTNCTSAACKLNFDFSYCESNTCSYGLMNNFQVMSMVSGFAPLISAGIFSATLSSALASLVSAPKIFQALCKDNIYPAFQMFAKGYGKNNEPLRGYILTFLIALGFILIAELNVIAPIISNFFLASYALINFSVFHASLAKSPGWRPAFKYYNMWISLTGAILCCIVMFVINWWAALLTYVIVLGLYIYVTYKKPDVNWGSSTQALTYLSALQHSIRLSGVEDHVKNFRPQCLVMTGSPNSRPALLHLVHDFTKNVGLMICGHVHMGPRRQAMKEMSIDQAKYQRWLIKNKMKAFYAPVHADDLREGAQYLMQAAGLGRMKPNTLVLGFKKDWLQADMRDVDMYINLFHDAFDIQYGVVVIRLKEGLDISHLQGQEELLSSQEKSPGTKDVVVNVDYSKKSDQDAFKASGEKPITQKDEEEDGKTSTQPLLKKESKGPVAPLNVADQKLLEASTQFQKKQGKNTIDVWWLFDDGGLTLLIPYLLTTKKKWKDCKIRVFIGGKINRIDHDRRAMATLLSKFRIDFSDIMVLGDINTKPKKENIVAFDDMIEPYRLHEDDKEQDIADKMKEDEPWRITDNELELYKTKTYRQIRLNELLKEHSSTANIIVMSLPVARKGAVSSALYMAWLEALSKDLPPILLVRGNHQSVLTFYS
Procedure: Na^+K^+Cl^− co-transporter activity was measured in vitro in A7r5 cells by measuring their uptake of ^86Rb (0.2 μCi) in 10 minutes at 37° C. as detected by scintillation counting. See Chassande, et al. (1988) “The Na^+/K^+/Cl^− Cotransport in C6 glioma cells. Properties and role in volume regulation.” Eur. J. Biochem. 171: 425433.

Sprague-Dawley rats = test: Kainic acid induced seizures in rats; format: in vivo, rat; set-up: key to Seizures Severity Mean ± SD (grade 0 to IV): seizure grade 0 = no response to IV = status epilepticus; conditions: 20 μmoles/kg IP; for Seizures Severity Mean ± SD (grade 0 to IV) / Seizures Mean ± SD (1 = yes, 0 = no): KA 15 mg/kg i.p.; for Seizures Mean ± SD (1 = yes, 0 = no): 2 hours; for change in vivo at 20 µmol/kg: Rattus norvegicus, 2 h, vs DMSO control
Procedure: Formulation of kainic acid was performed by NTS as a stock solution by reconstituting kainic acid with (100%) saline that was stored at 4° C. Vehicle control received saline solution. […] The research investigators were blinded to the treatment groups.
Solutions were prepared fresh daily just prior to use; dosing of all 10 rats with any given compound occurred on a single day after preparing the dosing solution. […] Unused remaining dosing solutions were stored frozen.
Animals were maintained in a temperature- and light-controlled environment in accord with the principles and procedures of the National Institutes of Health Guidelines for Care and Use of Laboratory Animals. Seizures were induced in adult, male Sprague-Dawley rats (260-300 g) by injection of KA (15 mg/kg, i.p.). In addition, animals were injected with test compounds following kainic acid to determine the effects on protection from epilepsy. Animals were monitored behaviorally for seizures for 2 hours after injection.
Seizure activity was initially characterized as either yes (1) or no (0) within a 2 hour period following injection of KA. A seizure severity grade was assigned based on the maximal response achieved on a scale from 0 to IV as follows: 0, no response; I, single limb clonus and scratching; II, multiple limb clonus and staggering gait; […], limb clonus, tonic extension of limbs and falling; IV, continuous grade III seizures for longer than 30 min (status epilepticus).
The results were expressed as the mean±standard deviation (SD). The significance of difference in the epileptic data was analyzed using a one-way analysis of variance (ANOVA) followed by Fisher's post hoc test. Repeated-measures ANOVA were computed on the monitoring data and the significance of the difference among groups were evaluated by Fisher's post hoc test.
All groups were subjected to kainic acid.
The induction of seizures in rats with kainic acid was determined as either yes seizures (1) or no seizures (0).

mouse = test: Formalin test (acute/early and late phase) in mice; format: in vivo; conditions: 150 mg/kg i.p., mice
Procedure: The formalin test was performed according to the method of Tjølsen, et al. (October 1992) “The formalin test: an evaluation of the method.” Pain 51(1): 5-17. An injection of 0.5% formalin is made into the plantar region of the right hind paw of a mouse. This elicits a distinct behavioral profile in response to the formalin injection characterized by the mouse licking the affected paw. The behavior is characteristically biphasic in nature. For example, immediately following the injection the mouse intensely licks the paw for approximately 5-10 minutes (“min.”) This initial behavior was considered phase 1 (acute) and is thought to be mediated primarily by chemical activation of local C-fibers. The acute phase is followed by a brief latent (usually <5 min) period where there is little or no behavioral activity. A more prolonged (about 20 to 30 min) period of licking then ensues which constitutes phase 2 of the response (late phase). See e.g., Tjølsen, et al. (Feb. 7, 1991) “Antinociceptive effect of paracetamol in rats is partly dependent on spinal serotonergic systems. Eur J Pharmacol. 193(2): 193-201 and Tjølsen, et al. (June 1991) Lesions of bulbo-spinal serotonergic or noradrenergic pathways reduce nociception as measured by the formalin test. Acta Physiol Scand. 142(2): 229-36, the disclosures of each of which are hereby incorporated by reference in its entirety.
It is in these tubes that mice are later observed for the licking activity for the duration of the experiment. Following the conditioning, the test substance was administered i.p. in a dose equivalent to the MES ED50 and the mouse returned to its home tube. At the TPE of the drug, the formalin is injected subdermally into the plantar surface of the right hind foot. It is given in a volume of 20 μl with a 27 gauge stainless steel needle attached to a Hamilton syringe. The bevel of the needle was placed facing down toward the skin surface. […] The cumulative length of licking for each 2-min time period was measured. […] Animals are euthanized following the conclusion of the experiment.
Area under the curve (AUC) and subsequent percent of control for drug-treated animal groups is determined using the GraphPad Prism Version 3.03. Total AUC was calculated for both the test and control groups for both the acute and inflammatory phases. The AUC for individual animals for each phase was also calculated and converted to percentage of total AUC of control. The average and S.E.M. for both the drug treated and control percentages were calculated and tested for significant difference.

[1] = read-out: Percent reduction in Seizures
[2] = read-out: Percent reduction in Seizures Severity

Row | Structure (SMILES) | inhibition at 10 µM (Na+K+Cl− co-transporter) [%] | remaining activity at 10 µM (Na+K+Cl− co-transporter) [%] | Seizures Severity Mean ± SD (grade 0 to IV) (Sprague-Dawley rats) | Seizures Mean ± SD (1 = yes, 0 = no) (Sprague-Dawley rats) | change in vivo at 20 µmol/kg (Sprague-Dawley rats; [1]) [%] | change in vivo at 20 µmol/kg (Sprague-Dawley rats; [2]) [%] | % of Control, Acute (mouse) [%] | % of Control, Late Phase (mouse) [%] | Treated (AUC of licking time), Acute (mouse) | Treated (AUC of licking time), Late Phase (mouse)
1 | CCCCNc1cc(C(=O)N(CC)CC)cc(S(N)(=O)=O)c1Oc1ccccc1 [NTP-2007, N,N-Diethyl 3-Aminosulfonyl-5-butylamino-4-phenoxybenzamide] | 30 | 70.4 | 1.500 ± 1.354 | 0.6000 ± 0.5164 | -33.3 | -37.5 |  |  |  | 
2 | CCCCNc1cc(C(=O)N(Cc2ccccc2)Cc2ccccc2)cc(S(N)(=O)=O)c1Oc1ccccc1 [NTP-2008, N,N-Dibenzyl 3-Aminosulfonyl-5-butylamino-4-phenoxybenzamide] | 17 | 82.8 | 0.1000 ± 0.3162 | 0.1000 ± 0.3162 | -88.9 | -95.8 | 63.69 | 10.66 | 73.94 | 66.42
3 | CCCCNc1cc(C(=O)OCC(=O)N(C)C)cc(S(N)(=O)=O)c1Oc1ccccc1 [NTP-2011, N,N-Dimethylaminocarbonylmethyl 3-Aminosulfonyl-5-butylamino-4-phenoxybenzoate] | 13 | 87.4 | 0.3000 ± 0.6749 | 0.2000 ± 0.4216 | -77.8 | -87.5 | 53.37 | 0.72 | 78.55 | 5.43
4 | CCCCNc1cc(C(=O)OCOC(=O)C(C)(C)C)cc(S(N)(=O)=O)c1Oc1ccccc1 [NTP-2012, t-Butylcarbonyloxymethyl 3-Aminosulfonyl-5-butylamino-4-phenoxybenzoate] | 35 | 65.5 | 0.2000 ± 0.4216 | 0.2000 ± 0.4216 | -77.8 | -91.7 | 48.5 | 0.49 | 75.07 | 5.08
5 | CCCCNc1cc(C(=O)N2CCCC2)cc(S(N)(=O)=O)c1Oc1ccccc1 [NTP-2022, N-Pyrrolidinyl Aminosulfonyl-5-N-butylamino-4-phenoxybenzamide] | 7 | 92.7 | 1.100 ± 1.101 | 0.6000 ± 0.5164 | -33.3 | -54.2 |  |  |  | 
